The values that follow come from US10633420B2, “Antimicrobial peptides with wound healing activity” (priority 2016, dated 2020).

In data set [1] the test system is EGFR. The data set can be described thus: Western blotting, EGFR phosphorylation. To be noted: 0.2 μM AG1478, 10 minutes preincubation. The class given is cell-based, human. The method, then:
FIGS. 8A-8F indicate transactivation of the EGFR-STAT pathway by DRGN-1. Subconfluent keratinocytes were starved for 2 hours in HGKS-free medium and then stimulated with 10 μg/ml DRGN-1. For EGFR inhibition, cells were preincubated with 0.2 μM AG1478 for 10 minutes and subsequently treated with 10 μg/ml DRGN-1. The cells were harvested into lysis buffer at the indicated times. The phosphorylation of EGFR (p-EGFR) and STAT3 (p-STAT3) was analyzed by Western blotting (FIGS. 8A, 8B, 8D, and 8E). EGFR indicates total EGFR protein. FIGS. 8C and 8F are graphs plotting densitometric analyses of the expression of phosphoprotein relative to unphosphorylated proteins (pEGFR/EGFR, FIG. 8C; pSTAT3/STAT3, FIG. 8F).
Western blotting: Semifluent HEKa cells were serum-starved for 3 hours and then stimulated with 10 μg/ml DRGN-1 or HKGS for 5-30 minutes at 37° C. AG1478 (0.2 μM final) was added 10 minutes prior to DRGN-1 or HKGS treatment. Cells were lysed with 2×Laemmli sample buffer (Bio-Rad; Hercules, Calif.) containing 5 mM sodium fluoride and 2 mM sodium vanadate. Cell lysates were separated on a 4-12% SDS-PAGE gel and transferred to polyvinylidene difluoride membrane using an iBlot system (Invitrogen). The membranes were probed with antibodies specific to phospho-EGFR and EGFR (Cell Signaling). […]

The subject of data set [2] is HEKa cells. Briefly: In vitro scratch wound closure assay. It is filed as cell-based, human. To be noted: 10 μg/ml DRGN-1; 20 μM mitomycin C or 0.2 μM AG1478 pretreatment. Here is the method:
In vitro scratch wound closure assays: In vitro wound closure was assayed in confluent cell monolayers of HEKa (Invitrogen) as described elsewhere (Kim et al., Amino Acids 46:2333-2343, 2014). Cells were seeded in 6-well plates (Corning, N.Y., USA) and grown until they reached confluence (48 hours) in EpiLife medium supplemented with HKGS. Cells were starved for 18 hours in EpiLife without HKGS and then scratched once vertically with a 200-μl pipette tip to create an artificial wound. For inhibitor studies, mitomycin C (20 μM final) and AG1478 (0.2 μM final) were added 90 minutes and 10 minutes prior to scratch generation. After being washed twice with PBS to remove cellular debris, cells were treated with DRGN-1, VK25 or LL-37. PBS was used as a negative control. Cells were photographed before peptide treatment and 7 hours and 24 hours after peptide treatment using an EVOS® Cell Imaging Systems (Invitrogen). The same image fields were captured and the wound areas were estimated using ImageJ software (Schneider et al., Nat Methods 9:671-675, 2012).

Data set [3] deals with P. aeruginosa ATCC 9027. To be noted: ATCC 9027, 3 h, pH 7.4.
The subject of data set [4] is P. aeruginosa PAO1 (pTDK-GFP).
Data set [5] deals with adult human epidermal keratinocytes (HEKa) cells. Briefly: MTT assay. The class given is cell-based. To be noted: for Toxic effects on metabolically active HEKa cells (MTT): 12.5˜100 μg/ml. Here is the method:
MTT assay: The toxic effect of the peptides on adult human epidermal keratinocytes (HEKa) cells was evaluated using the MTT (3-(4,5-dimethylthiazolyl-2)-2,5-diphenyltetrazolium bromide) colorimetric method (Di Grazia et al., Antimicrob Agents Chemother 58:2520-2527, 2014). The color intensity of the MTT is directly proportional to the number of metabolically active cells. Keratinocytes were plated in triplicate wells of a 96-well plate, at 4×10^4 cells/well in EpiLife medium supplemented with HKGS. After overnight incubation at 37° C. in a 5% CO2 atmosphere, the plate was incubated with the peptides at different concentrations for 2 hours, and 0.5 mg/ml of MTT was added. After 4 hours of incubation, formazan crystals were dissolved by adding 100 μl of acidified isopropanol, and the absorbance of each well was measured at 570 nm using a microplate reader (PowerWave X; BioTek, Winooski, Vt.).
For orientation: Formazan colour is commonly taken as a measure of viable cells.

In data set [6] the test system is Gram-negative P. aeruginosa and E. coli and the Gram-positive S. aureus.
Data set [7] has as its system F. novicida U112. The following applies: 3 hours, 10 mM sodium phosphate buffer pH 7.4.
Data set [8] deals with sheep erythrocytes. The data set can be described thus: Hemolytic activity. It is filed as cell-based. To be noted: high concentration. The method, then:
FIG. 4 is a graph plotting hemolytic activity of CAMPs. A fresh sheep erythrocyte suspension was incubated with the indicated peptides. Hemoglobin release into the supernatant was measured by absorbance at 567 nm to indicate membrane damage of erythrocytes.

Data set [9] concerns S. aureus SH1000 (pAH9-RFP). To be noted: 3 hours, 10 mM sodium phosphate buffer pH 7.4.
The subject of data set [10] is S. aureus ATCC25923. The following applies: ATCC25923, 3 h, pH 7.4.
Data set [11] has as its system internalized P. aeruginosa ATCC 9027 in HEKa keratinocytes. The data set can be described thus: P. aeruginosa-infected HEKa keratinocytes. The class given is cell-based, Pseudomonas aeruginosa. The following applies: 30 μg/ml, 2 hours. Here is the method:
Cell infection: Adult human epidermal keratinocytes HEKa (Invitrogen, Carlsbad, Calif.) cells were seeded in 24-well plates (Corning) and grown until they reached confluence (48 h) in EpiLife medium (Thermo Scientific) supplemented with human keratinocyte growth supplements (HKGS) containing 0.2% v/v bovine pituitary extract, 5 μg/ml bovine insulin, 0.18 μg/ml hydrocortisone, 5 μg/ml bovine transferrin, and 0.2 ng/ml human epidermal growth factor (EGF) (Invitrogen). The bacterial strain P. aeruginosa ATCC 9027 was grown in brain heart infusion (BHI) media at 37° C. with mild shaking and then harvested by centrifugation. Bacterial suspension (MOI 10) in EpiLife medium was co-incubated with keratinocytes for 2 hours at 37° C. and 5% CO2. The medium was aspirated and the cells were washed three times with PBS to remove non-adherent bacteria. In order to kill extracellular bacteria, cells were incubated for 1 hour in EpiLife without HKGS supplemented with 100 μg/ml of gentamicin. The medium was then aspirated and the infected cells were washed three times, as described above. Three hundred microliters of peptide solution (30 μg/ml) in EpiLife without HKGS was added to each well and the plate was incubated for 2 hours at 37° C. and 5% CO2. […] The CFU were counted after 24 hours at 37° C.

The subject of data set [12] is P. aeruginosa PAO1. To be noted: PAO1, 3 h, pH 7.4.
In data set [13] the test system is E. coli O157:H7. The following applies: 3 hours, 10 mM sodium phosphate buffer pH 7.4.
Where [14] appears, read: 3 hours, 10 mM sodium phosphate buffer pH 7.4.

Values after ≈ are worked out from the molar mass of the structure shown. Where two headings read alike, the source gives them in different places. No end group written: not given here.

Consider `COc1cc2ncnc(Nc3cccc(Cl)c3)c2cc1OC` [AG1478], for which the “Effect on DRGN-1-induced EGFR phosphorylation” value in data set [1] was “not observed in AG1478-treated cells”. Further, the “Effect on keratinocyte migration induced by DRGN-1” value in data set [2] is “prevented cell migration”.
A word on the EC50: it is the concentration needed to bring the measured effect to its halfway point. As to `CC[C@H](C)[C@H](NC(=O)[C@H](CCCCN)NC(=O)[C@H](CCC(=O)O)NC(=O)[C@H](CCCCN)NC(=O)[C@H](CO)NC(=O)[C@H](CCCCN)NC(=O)[C@H](CCCNC(=N)N)NC(=O)[C@H](Cc1ccccc1)NC(=O)[C@H](Cc1ccccc1)NC(=O)[C@H](CC(=O)O)NC(=O)CNC(=O)[C@H](CC(C)C)NC(=O)[C@@H](N)CC(C)C)C(=O)NCC(=O)N[C@@H](CCCCN)C(=O)N[C@@H](CCC(=O)O)C(=O)N[C@@H](Cc1ccccc1)C(=O)N[C@@H](CCCCN)C(=O)N[C@@H](CCCNC(=N)N)C(=O)N[C@H](C(=O)N[C@H](C(=O)N[C@@H](CCC(N)=O)C(=O)N[C@@H](CCCNC(=N)N)C(=O)N[C@H](C(=O)N[C@@H](CCCCN)C(=O)N[C@@H](CC(=O)O)C(=O)N[C@@H](Cc1ccccc1)C(=O)N[C@@H](CC(C)C)C(=O)N[C@@H](CCCNC(=N)N)C(=O)N[C@@H](CC(N)=O)C(=O)N[C@@H](CC(C)C)C(=O)N[C@H](C(=O)N1CCC[C@H]1C(=O)N[C@@H](CCCNC(=N)N)C(=O)N[C@H](C(=O)N[C@@H](CCC(=O)O)C(=O)N[C@@H](CO)C(=O)O)[C@@H](C)O)C(C)C)[C@@H](C)CC)C(C)C)[C@@H](C)CC` [LL-37, reference compound], the EC50 in data set [3] is 1.08 µg/mL (≈ 0.24 µM); in data set [4] (PAO1, 3 h, pH 7.4), 2.69 µg/mL (≈ 0.599 µM); in data set [6] it was 50 to 600 nM. For the same compound, the “HEKa cell viability (MTT)” value in [5] (50˜100 μg/ml) was “significant decrease”. The “EC50, range over strains” value in [6] was in the range of 0.24 to 2.7 µg/mL.
For `CO[C@@]12[C@H](COC(N)=O)C3=C(C(=O)C(C)=C(N)C3=O)N1C[C@@H]1N[C@@H]12` [mitomycin C], the “Effect on keratinocyte migration induced by DRGN-1” value in data set [2] is on record as “strongly inhibited”.
In the case of PSKKTKPVKPKKVA [DRGN-1, PSKKTKPVKPKKVA], the EC50 in [7] is over 100 µg/mL; in data set [3] it was 4.39 µg/mL; in data set [4] (setting [14]) it was 7.10 µg/mL; in [9], 0.77 µg/mL; in data set [6], 500 to 4620 nM; in [10] it was 4.04 µg/mL. Also, the EC50 is 6.85 µg/mL in data set [12] and 3.48 µg/mL in [13]. Moreover, the “Toxicity against erythrocytes (hemolysis)” value in [8] is on record as “did not show any toxicity”. Further, the “Toxic effects on metabolically active HEKa cells (MTT)” value in data set [5] was “devoid of toxic effects”. Moreover, the “EC50, range over strains” value in data set [6] lay within 0.77 to 7.1 µg/mL. Also, the “Killing of internalized bacteria” value in data set [11] came out at 36%.
As for SPKKTKPVKPKKVA [VK25, SPKKTKPVKPKKVA], the 50% effective concentration (EC50) in data set [7], in [3], in data set [4] (setting [14]), in data set [9], in data set [10] and in data set [12] was over 100 µg/mL in each case. This compound gave an EC50 in [13] of over 100 µg/mL. Further, the “Toxic effects on metabolically active HEKa cells (MTT)” value in data set [5] is “devoid of toxic effects”. Further, the “EC50, range over strains” value in data set [6] was over 100 µg/mL.
